These results are taken from patent US9260376B2, “Compounds for use in the treatment of immune related inflammatory disease” (VENANTIUS LIMITED, priority 2011, dated 2016).

The test system of test [1] is 5% DSS murine colitis. The experiment in a line: DSS murine colitis, Experiment 2 (Method 2). Format: in vivo, BDF1 male mice. As to conditions: 10 ml/kg oral gavage daily day 0-6, 5-ASA 100 mg/kg. The method, then:
A total of 90 BDF1 (H. pylori-free, murine norovirus-free) male mice (Harlan Laboratories, UK) were used in the study. Animals were 8-10 weeks old on supply and used at 10-12 weeks of age. All mice were held in individually ventilated cages (IVCs) in an SPF (Specific Pathogen Free) barrier unit. The animals were identified by numbered cages and by ear punches.
DSS (MP Biomedicals 0216011090, lot# M2709) was prepared as a 5% (w/v) solution in the drinking water and made fresh daily on days 0 to 6 inclusive. DSS was administered from day 0 to day 7.
Test items were stored at −20° C. until the initiation of the study. Each test item was formulated as a homogenous suspension in 0.5% carboxymethyl cellulose (CMC, Sigma C4888) in sterile water (Sigma W3500, lot# RNBC1419), using an Ultraturax homogeniser, on study day −1. Compound 31 was formulated at 2 mg/ml and 47 was formulated at 4 mg/ml. After formulation the test item and the vehicle stocks anonymised with a letter code. All solutions were stored at 4° C. during the study, with 3.8 ml of each suspension being dispensed daily. Test items were administered by oral gavage, daily at 09.00 hrs, at 10 ml/kg, from study day 0 to study day 6.
5-ASA (5-Aminosalicylic acid, Sigma A3537, lot#051M1878V) was aliquoted into preweighed amounts between 71 and 84 mg. Like test item suspensions, these aliquots were anonymised by a letter code. Individual aliquots were formulated as a 10 mg/ml suspension in 0.5% CMC (Sigma C4888) in sterile water (Sigma W3500, lot# RNBC1419) on each day of dosing. 5-ASA was administered by oral gavage, daily at 09.00 hrs, at 10 ml/kg to give a dose of 100 mg/kg, from study day 0 to study day 6. 2.5 Clinical examinations
Any animal was culled if the weight loss was greater than 20%. Animal well-being was monitored daily. Once daily from day 0 until the end of the study, all mice were weighed and assessed for stool consistency, and the presence of overt blood in the stool or around the anus according to the criteria in 2.1
At necropsy, observation of stool in the large bowel was used to supplement in-life observation. […]

In test [2] the test system is IL2 release from Jurkat cells (T cell line Jurkat 6.1). The experiment in a line: Effect of compounds on IL-2 secretion in T lymphocytes (anti-CD3/anti-CD28 stimulated, ELISA). The test is classed as cell-based. Particulars: control inhibitors; plates 2 and 3. The method, then:
The T cell line Jurkat 6.1 (ATCC) was used. Cells were pre-treated for 30 min with 1 μM or 10 μM of the respective compound and then stimulated with plate-bound anti-CD3 (BD Pharmingen) and anti-CD28 (AnCell). DMSO was used as vehicle control. […] After 24 hs the supernatant was collected and IL-2 secretion was measured by ELISA.
Compounds were prepared by dissolution in DMSO to yield final concentrations of 1 and 10 μg/ml
(In general: In an ELISA, binding on a coated surface is turned into a signal by an enzyme label.)

As for `O=C(Nc1ccc(O)c(C(=O)O)c1)c1ccc(C[C@@]2(C3=Cc4ccccc4C3)Cc3ccccc3[C@H]2O)cc1` [Compound 47, 2-hydroxy-5-(4-(((1S,2S)-1-hydroxy-2,3-dihydro-1H,1′H-[2,2′-biinden]-2-yl)methyl)benzamido)benzoic acid], the “DAI at day 7 in comparison with vehicle” value in test [1] (31 at 2 mg/ml, 47 at 4 mg/ml) is “reduced DAI comparable or equal to 5ASA”. Besides, in test [1] (47 formulated at 4 mg/ml), the “loss of body weight at day 7 in comparison with vehicle control” value is “does not result in an increase in loss of body weight”.
Molecule `CN[C@@H]1C[C@H]2O[C@@](C)([C@@H]1OC)n1c3ccccc3c3c4c(c5c6ccccc6n2c5c31)C(=O)NC4` [Stauros] had an IL-2 pg/ml in test [2] of 117.75 pg/mL.
